# According to patent US7166569B2, “Method for the prevention of transplant rejection” (priority 1994, dated 2007):
# Assays:
# [1] = Experiment 2: administration of HGH and DHEA, blood metabolite levels; assay type: in vivo, human
# Method: As in the first experiment, a standard dietary regimen was followed the evening before each blood sample was collected. HGH administration was initiated one day after a baseline blood sample was drawn. HGH was injected subcutaneously at a dose of approximately 0.018 mg/kg/day, every other night, and was injected near midnight prior to blood collection the following morning. Blood was collected between 10:30 and 11:00 a.m. The second blood sample was taken on day 8, or just over 7 days after beginning HGH injections (4 injections in total to that time). After this second blood sample, a “wash out” period of two days was allowed prior to reinitiating injections according to the same schedule. On day 9, during the HGH “wash out” period, a priming dose of 200 mg of DHEA was taken in divided doses to prepare the patient for the HGH. The second round of injections was done simultaneously with the ingestion of two 100 mg capsules of DHEA, beginning on the evening of day 10. This regimen continued for a total of 4 HGH injections, culminating in the final injection on day 16 and blood sampling on day 17. Two hundred mg of DHEA were taken also on the nights between HGH injections, at the normal time. HGH injections were administered near midnight of the day stated.
# [2] = cited from earlier work
# [3] = Experiment 1: administration of arginine (an HGH releaser) and DHEA to a human patient, fasting blood analysis; assay type: in vivo
# Excerpt: A human patient was placed on a standardized regimen of nutrient intake for two weeks to establish a baseline prior to ingesting any HGH releasing agents. The evening prior to blood analysis, the same evening meal was consumed (salmon, potato, white wine, vegetables, and Caesar salad). Upon establishing basal values for glucose, insulin, somatomedin C (a marker for growth hormone), DHEA-sulfate, serum lipids, and testosterone, a daily regimen of ingesting 15 grams of arginine just before bedtime was instituted. This regimen was maintained for one week, after which a new baseline was obtained. The evening following this new baseline measurement, DHEA was ingested at a dose of 180 mg (two 90 mg capsules taken simultaneously) at the same time as the arginine. This was continued for one week and the baseline levels of metabolites were rechecked. Finally, for the last week, the arginine dose was administered every other day or at 7.5 g/day while DHEA levels were maintained. Thus, the data points are as follows: • 1: Baseline—begin 15 gm/day administration of arginine; • 2: Day 7—begin 180 mg/day DHEA; • 3: Day 14—begin 15 gm arginine every other day or 7.5 g/day; and • 4: Day 21—end of experiment, no arginine administered the previous night.
# [4] = Independent experiment: IGF-1 level after arginine ingestion; assay type: in vivo; conditions: two hours after arginine ingestion; basal 223 ng/ml
# Excerpt: This drop was sustained as long as arginine administration was continued. […] Others have also measured somatomedin C levels following arginine ingestion or infusion, and found them to be depressed despite good release of HGH. There is no explanation for this paradox, but it is not material to the fact that HGH is released by arginine and that released HGH does elevate insulin and that DHEA does block this insulin-elevating effect.
# [5] = humans, arginine ingestion or infusion; cited from earlier work
molecule,measurement,setting,value
HGH: recombinant or natural human growth hormone,insulin rise prior to DHEA ingestion,"[1]; HGH approx. 0.018 mg/kg/day s.c. every other night, day 8",57%
same,DHEA-sulfate change,[1]; HGH only,unaltered
same,"circulating DHEA levels, depression",[1]; HGH only,a third
same,Insulin level,"[1]; serum, by stage of experiment, baseline 6.6",10.4 uU/ml
same,IGF-1 level,"[1]; serum, by stage of experiment, baseline 27.0",35.5 µg/dL
same,DHEA-sulfate level,"[1]; serum, by stage of experiment, baseline 146",146 µg/dL
same,DHEA level,"[1]; serum, by stage of experiment, baseline 360",240 ng/dL
Chromium picolinate,extension of the life span of animals,[2],50%
N=C(N)NCCC[C@H](N)C(=O)O [arginine],insulin determination after only 3 days of arginine ingestion,"[3]; 3 days of arginine, data not shown in FIG. 1",normal insulin level
same,somatomedin C (IGF-1) levels in response to oral arginine,"[3]; FIG. 5, sustained as long as arginine was continued",DROP
same,"circulating level of DHEA-sulfate, point 4 versus point 3","[3]; fall in arginine ingestion, no drop in DHEA ingestion",fell
same,glucose concentration,"[3]; fasting serum, during introduction and tapering off of arginine",no change
same,fasting serum insulin rise in response to arginine ingestion,"[3]; point 2, day 7, 15 g/day arginine at bedtime, no DHEA",~50%
same,"DHEA-sulfate, endogenous change","[3]; point 2 versus point 1, arginine only, no DHEA ingested",noticeable increase
same,IGF-1 level after arginine ingestion,[4],166 ng/mL
same,time for insulin to fall back to baseline after arginine,[5],1 to 2 h
same,time to peak of insulin levels after arginine,[5],≤ 30 min
"C[C@]12CC[C@H](O)CC1=CC[C@@H]1[C@@H]2CC[C@]2(C)C(=O)CC[C@@H]12 [DHEA, dehydroepiandrosterone]",insulin level at point 4,"[3]; day 21, DHEA maintained, arginine every other day, none the night before",returned to basal levels
same,"fasting serum insulin, % of basal levels","[3]; point 3, day 14, 180 mg/day DHEA with continuing undiminished 15 g/day arginine",76%
